Source: ChEMBL document CHEMBL1914362, “Highlights of marine invertebrate-derived biosynthetic products: their biomedical potential and possible production by microbial associants” (Bioorg Med Chem, 2011)

Legend:
HT-29 = assay: Cytotoxicity against human HT-29 cells; format: functional, cell-based
HCT-116 = assay: Cytotoxicity against human HCT116 cells; format: functional, cell-based
[1] = Irreversible inhibition of 20S proteasome

SMILES | IC50 (HT-29) [nM] | further results
C=CC(C)(C)c1[nH]cnc1/C=C1\NC(=O)[C@H](Cc2ccccc2)NC1=O | 440 | 
C[C@@]12OC(=O)[C@]1([C@@H](O)[C@@H]1C=CCCC1)NC(=O)[C@@H]2CCCl [MARIZOMIB] |  | IC50 (HCT-116): 35 nM
CC(C)[C@H](O)[C@@]12NC(=O)[C@H](C)[C@@H]1OC2=O [OMURALIDE] |  | IC50 [1]: 49 nM
CC(C)(C)c1[nH]cnc1/C=c1\[nH]c(=O)/c(=C/c2ccccc2)[nH]c1=O [PLINABULIN] | 18 | 
